Results from patent US20240254138A1, “TRICYCLIC PYRIMIDINES AS CYCLIN-DEPENDENT KINASE 7 (CDK7) INHIBITORS” (JANSSEN PHARMACEUTICA NV, priority 2021, published 2024).
Where two headings read alike, the source gives them in different places.

Key:
[1] = tested on: RNA Polymerase II Serine 5 phosphorylation in A549 cells overexpressing CDK7-mutant (C312S); experiment: Imaging-based cellular RNA PolII Ser5 phosphorylation assay in A549 cells overexpressing CDK7-mutant (C312S); type: cell-based, human; conditions: RNA PolII Ser5 phosphorylation, averaged over all measurements; for IC50: Homo sapiens, A549, A549 cells overexpressing CDK7-mutant (C312S), read-out: CDK7_A549 mutant hCDK7(pIC50) (converted); for CDK7_A549 mutant hCDK7(pIC50): A549 cells overexpressing CDK7-mutant (C312S)
Method in brief: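 Readout was automated imaging of anti-phospho-Ser5 Rpb1 CTD immunofluorescence, with IC50 fitted to % control versus concentration. Cells were A549 stably overexpressing non-covalently targetable CDK7 C312S alongside wild-type, exposed to compound 3 h at 37 °C. DMSO and 10 μM reference compound served as controls.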

[2] = tested on: RNA Polymerase II Serine 5 phosphorylation (Rpb1 CTD, downstream substrate of CDK7) in A549 cells; experiment: Imaging-based cellular RNA PolII Ser5 phosphorylation assay in A549 cells; type: cell-based, human; conditions: wild-type CDK7, RNA PolII Ser5 phosphorylation, averaged over all measurements; for IC50: Homo sapiens, A549, A549 cells, read-out: CDK7_A549 Wild-type CDK7 (pIC50) (converted); for CDK7_A549 Wild-type CDK7 (pIC50): A549 cells
Method in brief: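 IC50 derived by fitting % control (DMSO high, 10 μM reference low) against concentration, with Hill slope. Readout: high-content imaging of phospho-Ser5 Rpb1 CTD antibody staining in fixed, permeabilized A549 cells exposed to compound 3 h after 20 h culture in 1% FBS DMEM.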

[3] = target: CDK7/cyclinH/MAT1 trimeric complex (Homo sapiens, UniProt P50613); experiment: In vitro CDK7 assay, potency of irreversible covalent inhibitors (kinact/KI), coupled PK/LDH ADP readout at 340 nm
[4] = CDK7 (20 nM enz.) (KI, μM), 20 nM enzyme
[5] = read-out: CDK7 (20 nM enz.) (kinact, s^−1), 20 nM enzyme
[6] = read-out: CDK7 (20 nM enz.) (kinact/KI, M^−1*s^−1), 20 nM enzyme
[7] = read-out: CDK7 (20 nM enz.) (kobs/[I], M^−1*s^−1), 20 nM enzyme
[8] = CDK7 (KI(μM)), […], 1 mM ATP, room temperature, averaged values over all measurements
[9] = read-out: CDK7 (kinact, s^−1), kinact = maximal rate of inactivation, 1 mM ATP, room temperature, averaged values over all measurements
[10] = read-out: CDK7 (kinact/KI, M^−1*s^−1), potency of irreversible covalent inhibitors, 1 mM ATP, room temperature, averaged values over all measurements

Sequence of CDK7/cyclinH/MAT1 trimeric complex (P50613 whole entry): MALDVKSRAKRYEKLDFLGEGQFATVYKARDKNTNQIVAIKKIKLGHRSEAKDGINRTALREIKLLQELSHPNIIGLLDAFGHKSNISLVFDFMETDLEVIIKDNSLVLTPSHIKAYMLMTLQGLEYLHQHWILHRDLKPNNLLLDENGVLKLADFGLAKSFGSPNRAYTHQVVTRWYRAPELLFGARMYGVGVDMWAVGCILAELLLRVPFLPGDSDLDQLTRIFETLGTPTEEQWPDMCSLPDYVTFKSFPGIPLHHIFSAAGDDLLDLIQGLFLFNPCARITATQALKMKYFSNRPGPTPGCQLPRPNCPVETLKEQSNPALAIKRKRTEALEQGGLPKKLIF
Sequence of CDK7/cyclinH/MAT1 trimeric complex (P51946 whole entry partner): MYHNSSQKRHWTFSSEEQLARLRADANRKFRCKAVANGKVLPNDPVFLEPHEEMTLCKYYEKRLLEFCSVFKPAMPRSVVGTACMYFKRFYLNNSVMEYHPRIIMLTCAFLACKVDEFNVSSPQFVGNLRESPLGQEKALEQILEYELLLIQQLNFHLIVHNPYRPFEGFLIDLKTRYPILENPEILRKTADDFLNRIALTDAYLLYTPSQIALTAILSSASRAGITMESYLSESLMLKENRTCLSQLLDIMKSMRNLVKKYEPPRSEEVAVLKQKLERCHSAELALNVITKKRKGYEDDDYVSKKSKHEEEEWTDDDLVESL
Sequence of CDK7/cyclinH/MAT1 trimeric complex (P51948 whole entry partner): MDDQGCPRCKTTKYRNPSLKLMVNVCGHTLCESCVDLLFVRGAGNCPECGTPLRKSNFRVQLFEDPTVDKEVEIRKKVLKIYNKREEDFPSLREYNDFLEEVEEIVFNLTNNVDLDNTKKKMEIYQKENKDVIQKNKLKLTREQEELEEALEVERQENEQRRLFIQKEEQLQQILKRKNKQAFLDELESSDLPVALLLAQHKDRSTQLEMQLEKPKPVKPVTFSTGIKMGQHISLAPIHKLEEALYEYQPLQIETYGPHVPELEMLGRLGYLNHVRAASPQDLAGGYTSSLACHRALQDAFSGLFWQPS

Row | Compound | IC50 [1] [nM] | IC50 [2] [nM] | Ki [3, 4] [µM] | kinact [3, 5] [s⁻¹] | kinact/KI [3, 6] [M⁻¹ s⁻¹] | kinact/KI [3, 7] [M⁻¹ s⁻¹] | CDK7_A549 mutant hCDK7(pIC50) [1] | CDK7_A549 Wild-type CDK7 (pIC50) [2] | CDK7 (20 nM enz.) (kinact/KI, M^−1*s^−1) ([3]; 20 nM enzyme) [M⁻¹ s⁻¹] | Ki [3, 8] [µM] | kinact [3, 9] [s⁻¹] | kinact/KI [3, 10] [M⁻¹ s⁻¹]
1 | C=CC(=O)N1CC[C@H](N2CC(c3cc4c(c(C)n3)OCc3c(N5CCOCC5)ccnc3N4)C2)[C@H](F)C1 [Compound 225] | > 10000 | 126 | 0.337 | 6.24e-05 | 185 | – | – | – | – | – | – | –
2 | CC#CC(=O)N1CCC(N2CC(c3cc4c(c(C5CC5)n3)O[C@@H](C)c3c(N5CCOCC5)ccnc3N4)C2)CC1 (single isomer, unassigned) [Compound 374] | > 10000 | 457 | 1.36 | 3.18e-05 | 23.3 | – | – | – | – | – | – | –
3 | C=CC(=O)N1CC(N2CC[C@@H](c3ccc4c(c3)Nc3nccc(N5CCOCC5)c3CO4)[C@H](O)C2)C1 (mixture of isomers) [Compound 72] | > 10000 | 589 | 0.412 | 6.82e-05 | 166 | – | – | – | – | – | – | –
4 | C=CC(=O)N1CCC(N2CC(c3cc4c(c(C)n3)O[C@H](C)c3c(C5CCOCC5)ccnc3N4)C2)CC1 (single isomer, unassigned) [Compound 465] | 7080 | 72.4 | 0.0329 | 2.79e-05 | 848 | – | – | – | – | – | – | –
5 | CC#CC(=O)N1CCC(N2CC(c3cc(C#N)c4c(c3)Nc3nccc(N5CCOCC5)c3[C@H](C)O4)C2)C1 (mixture of isomers) [Compound 494] | > 10000 | 4070 | – | – | 3.14 | – | – | – | – | – | – | –
6 | C#Cc1cc2c(cc1C1CCN(C3CN(C(=O)C=C)C3)CC1)Nc1nccc(N3CCOCC3)c1CO2 [Compound 175] | > 10000 | 240 | 0.0695 | 4.03e-05 | 580 | – | – | – | – | – | – | –
7 | C#Cc1cc(C2CCN(C3CN(C(=O)C=C)C3)CC2)cc2c1O[C@@H](C)c1c(N3CCOCC3)ccnc1N2 (single isomer, unassigned) [Compound 258] | 6460 | 21.4 | – | – | – | 619 | – | – | – | – | – | –
8 | C=CC(=O)N1CC[C@H](N2CC(c3cc4c(c(C)n3)O[C@H](C)c3c(N5CCOCC5)ccnc3N4)C2)C1 (single isomer, unassigned) [Compound 455] | > 10000 | 91.2 | – | – | 179 | – | – | – | – | – | – | –
9 | C=CC(=O)N1CCC(N2CC(c3cc(C)c4c(c3)Nc3nccc(-c5cnn(C)c5)c3CO4)C2)CC1 [Compound 338] | – | – | – | 4.86e-05 | – | – | 5.52 | 7.25 | 299.026 | – | – | –
10 | C=CC(=O)N1CC(N2CCC(c3cc4c(cn3)OCc3c(C5CCOCC5)ccnc3N4)CC2)C1 [Compound 130] | > 10000 | 97.7 | 0.11 | 7.73e-05 | 704 | – | – | – | – | – | – | –
11 | C=CC(=O)N1CC(N2CC(c3cc4c(c(C)n3)OCc3c(-c5cnn(C)c5)ccnc3N4)C2)C1 [Compound 198] | > 10000 | 240 | 0.365 | 4.47e-05 | 122 | – | – | – | – | – | – | –
12 | C=CC(=O)N1CC(c2ccc(-c3ccc4c(c3)Nc3nccc(N5CCOCC5)c3CO4)cn2)C1 [Compound 43] | > 10000 | 339 | – | – | – | – | – | – | – | 0.0497 | 5.46e-05 | 1100
13 | C=C(C(=O)N1CC[C@@H](N2CCC(c3cc4c(c(C)n3)OCc3c(-c5cnn(C)c5)ccnc3N4)CC2)C1)n1cccn1 (single isomer, unassigned) [Compound 365] | > 10000 | 43.7 | 0.046 | 4.07e-05 | 885 | – | – | – | – | – | – | –
14 | C=CC(=O)N1CC[C@@H](N2CC(c3cc4c(c(C#N)n3)O[C@H](C)c3c(N5CCOCC5)ccnc3N4)C2)C1 (single isomer, unassigned) [Compound 506] | 8320 | 102 | – | – | – | 348 | – | – | – | – | – | –
15 | C=CC(=O)N1CCC(N2CC(c3cc(Cl)c4c(c3)Nc3nccc(-c5cnn(C)c5)c3CO4)C2)CC1 [Compound 85] | 4370 | 81.3 | – | – | – | 608 | – | – | – | – | – | –
16 | C=CC(=O)N1CC(N2CC[C@H](c3ccc4c(c3)Nc3nccc(N5CCOCC5)c3CO4)C(C)(C)C2)C1 (single isomer, unassigned) [Compound 67] | > 10000 | 214 | 0.0862 | 6.48e-05 | 752 | – | – | – | – | – | – | –
17 | CC#CC(=O)N1CC(N2CC[C@H](c3cc4c(c(C)n3)OCc3c(N5CCOCC5)ccnc3N4)C2)C1 (single isomer, unassigned) [Compound 387] | > 10000 | 977 | 0.451 | 2.21e-05 | 49.1 | – | – | – | – | – | – | –
18 | C=CC(=O)N1CC(N2CCC(c3cc4c(cn3)O[C@@H](C)c3c(N5CCOCC5)ccnc3N4)CC2)C1 (single isomer, unassigned) [Compound 261] | > 3980 | 955 | 1.11 | 3.89e-05 | 34.9 | – | – | – | – | – | – | –
19 | C=CC(=O)N1CC(N2CCC(c3cc4c(cc3Cl)OCc3c(N5CCOCC5)ccnc3N4)CC2)C1 [Compound 23] | > 10000 | 120 | – | – | – | – | – | – | – | – | – | 455
20 | C=CC(=O)N1CC(N2CCO[C@@H](c3cc(C)c4c(c3)Nc3nccc(C5CCOCC5)c3CO4)CC2)C1 (single isomer, unassigned) [Compound 221] | > 10000 | 282 | 0.512 | 7.79e-05 | 152 | – | – | – | – | – | – | –
21 | C=CC(=O)N1CC(N2CCC(c3ccc4c(c3)Nc3nccc(N5CCC6(CCO6)CC5)c3CO4)CC2)C1 [Compound 46] | > 10000 | 631 | – | – | – | – | – | – | – | 0.223 | 0.000102 | 456
22 | COC(=O)/C=C/C(=O)N1CC(N2CCC(c3cc4c(c(C)n3)OCc3c(-c5cnn(C)c5)ccnc3N4)CC2)C1 [Compound 431] | > 10000 | 55 | – | – | – | 1170 | – | – | – | – | – | –
23 | C=CC(=O)N1CCC2(CC1)CC(c1cc(F)c3c(c1)Nc1nccc(N4CCOCC4)c1CO3)C2 [Compound 250] | > 10000 | 1820 | 0.564 | 1.06e-05 | 18.9 | – | – | – | – | – | – | –
24 | C#Cc1cc2c(cc1C1CCN(C3CN(C(=O)C=C)C3)CC1)Nc1nccc(N3CCOCC3)c1[C@@H](C)O2 (single isomer, unassigned) [Compound 211] | – | – | 7.29 | 7.18e-05 | 9.85 | – | <5 | ~5 | – | – | – | –
25 | CC#CC(=O)N1CC[C@H](N2CC(c3cc(C)c4c(c3)Nc3nccc(C5CCOCC5)c3CO4)C2)C1 (single isomer, unassigned) [Compound 305] | > 10000 | 240 | 0.0839 | 2.97e-05 | 354 | – | – | – | – | – | – | –
26 | C=CC(=O)N1CC[C@@H](N2CC(c3cc4c(c(C5CC5)n3)O[C@H](C)c3c(N5CCOCC5)ccnc3N4)C2)C1 (single isomer, unassigned) [Compound 469] | > 10000 | 2140 | 1.32 | 4.03e-05 | 30.5 | – | – | – | – | – | – | –
27 | C=CC(=O)Nc1ccc(CNc2ccc3c(c2)Nc2nccc(N4CCOCC4)c2CO3)cn1 [Compound 16] | 3800 | 45.7 | 0.0286 | 3.3e-05 | 1160 | – | – | – | – | – | – | 402
28 | C=CC(=O)N1CC[C@@H](N2CC(c3cc4c(c(C5CC5)n3)OCc3c(-c5cnn(C)c5)ccnc3N4)C2)C1 (single isomer, unassigned) [Compound 286] | > 10000 | 126 | 0.146 | 4.74e-05 | 324 | – | – | – | – | – | – | –
